From US4956461A, “Desamino-aminopterin and -methotrexate” (priority 1989, dated 1990)
Like-named read-outs stand apart in the source and are kept apart here.

What was measured:
[1] = tested on: WI-L2 cells; assay: Growth inhibition of cultured human WI-L2 tumor cells; format: cell-based
[2] = tested on: DHFR, threonine residue replaced by valine; settings: threonine to valine mutant; cited from earlier work
[3] = tested on: E. coli dihydrofolate reductase (DHFR), aspartic acid replaced with serine; settings: cited from earlier work
[4] = tested on: L1210 cells; assay: Growth inhibition of cultured murine L1210 tumor cells; format: cell-based
[5] = biological target: T1, dihydrofolate reductase (DHFR) (Homo sapiens, UniProt P00374); assay: Inhibition of purified dihydrofolate reductase (DHFR) from human leukemic lymphoblasts (WI-L2 cells); format: biochemical
T1 construct: endogenous in cells; host or cells: MTX-resistant WI-L2 human leukemic lymphoblasts
T1 sequence (P00374 1-187): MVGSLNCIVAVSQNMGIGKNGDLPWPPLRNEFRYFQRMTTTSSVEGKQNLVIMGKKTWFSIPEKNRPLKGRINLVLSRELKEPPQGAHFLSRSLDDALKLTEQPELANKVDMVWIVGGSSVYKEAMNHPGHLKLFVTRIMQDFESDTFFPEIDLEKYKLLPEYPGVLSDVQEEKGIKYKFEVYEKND
Excerpt: DHFR was isolated from MTXresistant WIL2 cells and purified by affinity

[6] = Stability in solution (base, pH 7.4 buffer, NH4HCO3 eluates); format: physicochemical; settings: for time stable in pH 7.4 phosphate buffer / half-life: room temperature, pH 7.4 phosphate buffer; for half-life: read-out: t1/2 (UV changes suggestive of pyrimidine ring cleavage) (converted); for stability of 3% NH4HCO3 eluates: overnight in the refrigerator
Excerpt: Critically important to the successful purification of the end products of Examples 3 and 4 on diethylamino-ethylcellulose was that the fractions were freeze dried as soon as possible after collection.

[7] = tested on: carboxypeptidase G1; assay: Glutamate hydrolysis by carboxypeptidase G1 (HPLC); format: biochemical; settings: for disappearance of starting material (glutamate hydrolysis): room temperature, 1M NaOAc, ZnCl2, in less than 15 min
[8] = tested on: L1210 cells; assay: Reversal test: effect of thymidine and hypoxanthine on growth of L1210 cells in presence of compound; format: cell-based, murine; settings: Mus musculus
Method: Thymidine (dThd) and hypoxanthine (Hx) were added at concentrations of 10 μM and 100 μM, respectively.

[9] = WIL2, read-out: Cells IC50, WI-L2
[10] = WIL2, read-out: IC50, growth of cultured tumor cells
[11] = + 10 μM thymidine and 100 μM hypoxanthine, read-out: IC50, + dThd and Hx
[12] = + 10 μM thymidine, read-out: IC50, + dThd
[13] = + 100 μM hypoxanthine, read-out: IC50, + Hx
[14] = read-out: IC50, standard medium
[15] = Mus musculus, L1210, read-out: Cells IC50, L1210
[16] = Mus musculus, L1210, read-out: IC50, growth of cultured tumor cells

Structure (SMILES): CN(Cc1cnc2nc(N)nc(N)c2n1)c1ccc(C(=O)N[C@@H](CCC(=O)O)C(=O)O)cc1 [MTX, methotrexate]
- IC50 ([1]; WIL2, one figure stated for WI-L2 and L1210 together, here WI-L2, read-out: IC50, growth of cultured tumor cells): 10 nM
- IC50 [1, 9]: 13 nM
- decrease in the KD for MTX [2]: 25 fold
- increase in the KD for MTX binding ([3]; aspartic acid to serine mutant of E. coli DHFR, equilibrium dialysis): 3000 fold
- decrease in the binding energy ([3]; aspartic acid to serine mutant): 4.4 kcal/mol
- IC50 ([4]; Mus musculus, L1210; read-out: Cells IC50, L1210): 9 nM
- IC50 ([4]; Mus musculus; one figure stated for WI-L2 and L1210 together; here L1210; read-out: IC50, growth of cultured tumor cells): 10 nM

Structure (SMILES): Cc1nc(N)c2nc(CNc3ccc(C(=O)N[C@@H](CCC(=O)O)C(=O)O)cc3)cnc2n1 [Example 2, 2-desamino-2-methyl-aminopterin]
- IC50 [5]: > 50000 nM
- IC50 [1, 9]: 28 nM
- IC50 [1, 10]: 30 to 80 nM
- stability in 0.1 N NaOH by HPLC [6]: rapid appearance of new peaks indicating a chemical reaction
- time stable in pH 7.4 phosphate buffer [6]: at least 24 h
- half-life [6]: ~72 h
- disappearance of starting material (glutamate hydrolysis) [7]: > 95%
- IC50 [8, 11]: > 100000 nM
- IC50 [8, 12]: 130 nM
- IC50 [8, 13]: 160 nM
- IC50 [8, 14]: 42 nM
- IC50 [4, 15]: 42 nM
- IC50 [4, 16]: 30 to 80 nM

Structure (SMILES): Nc1nc(N)c2nc(CNc3ccc(C(=O)N[C@@H](CCC(=O)O)C(=O)O)cc3)cnc2n1 [AMT, aminopterin]
- IC50 [1, 9]: 7.1 nM

Structure (SMILES): CN(Cc1cnc2ncnc(N)c2n1)c1ccc(C(=O)N[C@@H](CCC(=O)O)C(=O)O)cc1 [Example 3]
- IC50 [5]: 5800 nM
- stability of 3% NH4HCO3 eluates [6]: extensive decomposition occurred

Structure (SMILES): Cc1nc(N)c2nc(CN(C)c3ccc(C(=O)N[C@@H](CCC(=O)O)C(=O)O)cc3)cnc2n1 [Example 4]
- IC50 ([5]; purified DHFR from MTX-resistant WI-L2 cells, read-out: DHFR IC50): > 20000 nM
- stability of 3% NH4HCO3 eluates [6]: extensive decomposition occurred

Structure (SMILES): CN(Cc1cnc2nc(N)nc(N)c2n1)c1ccc(C(=O)N[C@H](CCC(=O)O)C(=O)O)cc1 [D MTX, reference compound]
- cleavage by carboxypeptidase G1 ([7]; identical conditions): resistant

Structure (SMILES): Nc1ncnc2ncc(CNc3ccc(C(=O)N[C@@H](CCC(=O)O)C(=O)O)cc3)nc12 [Example 1, 2-desamino-aminopterin]
- IC50 [1, 9]: 81 nM
- IC50 [1, 10]: 30 to 80 nM
- stability in 0.1 N NaOH by HPLC [6]: rapid appearance of new peaks indicating a chemical reaction
- time stable in pH 7.4 phosphate buffer [6]: at least 24 h
- half-life [6]: ~72 h
- disappearance of starting material (glutamate hydrolysis) [7]: > 95%
- IC50 [8, 11]: > 100000 nM
- IC50 [8, 12]: 160 nM
- IC50 [8, 13]: 260 nM
- IC50 [8, 14]: 82 nM
- IC50 [4, 15]: 82 nM
- IC50 [4, 16]: 30 to 80 nM
